Molecules are shown by their SMILES.

A word on the melting point: it is the temperature of the solid-liquid transition.

In turn, `CC(C)S(=O)(=O)NCC(C)(F)c1ccc(-c2ccc(CC#N)cc2)cc1` (stereo not shown) [Example 9, 2-{4-[4-(1-Fluoro-1-methyl-2-{[(methylethyl)sulfonyl]amino}ethyl)phenyl]phenyl}ethanenitrile] showed a melting point of 155 to 157 °C.

(Values after US7034045B1, “Monofluoroalkyl derivatives” (Eli Lilly and Company, priority 1999, dated 2006).)
